Assay type in all cases: biochemical
For experiment [1], the target named is human JAK1 (a.a. 837-1142). The experiment is described as follows: In vitro JAK kinase assay (HTRF, phosphorylation of a biotinylated peptide), JAK1. The following applies: ratio of JAK2 IC50 to JAK1 IC50, measured at 1 mM ATP. As to the method: (§1) Compounds herein were tested for inhibitory activity of JAK targets according to the following in vitro assay described in Park et al., Analytical Biochemistry 1999, 269, 94-104. The catalytic domains of human JAK1 (a.a. 837-1142), Jak2 (a.a. 828-1132) and Jak3 (a.a. 781-1124) with an N-terminal His tag were expressed using baculovirus in insect cells and purified. The catalytic activity of JAK1, JAK2 or JAK3 was assayed by measuring the phosphorylation of a biotinylated peptide. The phosphorylated peptide was detected by homogenous time resolved fluorescence (HTRF). […] Reactions were carried out at room temperature for 1 hr and then stopped with 20 μL 45 mM EDTA, 300 nM SA-APC, 6 nM Eu-Py20 in assay buffer (Perkin Elmer, Boston, Mass.). Binding to the Europium labeled antibody took place for 40 minutes and HTRF signal was measured on a Fusion plate reader (Perkin Elmer, Boston, Mass.).

Experiment [2] concerns the target human JAK1 (a.a. 837-1142) (Homo sapiens, UniProt P23458). The experiment is described as above. The following applies: measured at 1 mM ATP. As to the method:
as §1

The target of another experiment is Jak2 (a.a. 828-1132) (Homo sapiens (Human), UniProt O60674). The experiment is described as follows: In vitro JAK kinase assay (HTRF, phosphorylation of a biotinylated peptide), JAK2. The following applies: measured at 1 mM ATP. As to the method: as §1
Chain of Jak2 (a.a. 828-1132) (O60674 828-1132): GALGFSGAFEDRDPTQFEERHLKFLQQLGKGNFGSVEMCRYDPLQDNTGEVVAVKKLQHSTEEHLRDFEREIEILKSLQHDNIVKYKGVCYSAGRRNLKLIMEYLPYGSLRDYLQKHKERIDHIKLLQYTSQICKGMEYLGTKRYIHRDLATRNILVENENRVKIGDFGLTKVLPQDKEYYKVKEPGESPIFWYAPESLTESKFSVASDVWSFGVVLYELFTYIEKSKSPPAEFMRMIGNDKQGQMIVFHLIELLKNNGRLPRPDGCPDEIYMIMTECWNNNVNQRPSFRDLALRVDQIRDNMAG

Take `CC1CC(N2CC(CC#N)(n3cc(-c4ncnc5[nH]ccc45)cn3)C2)CCN1Cc1ccc(N(C)C)c(C#N)c1F` (single isomer, unassigned) [Example 242, 3-[(4-{3-(cyanomethyl)-3-[4-(7H-pyrrolo[2,3-d]pyrimidin-4-yl)-1H-pyrazol-1-yl]azetidin-1-yl}-2-methylpiperidin-1-yl)methyl]-6-(dimethylamino)-2-fluorobenzonitrile]: the “IC50 Ratio JAK2/JAK1” value in experiment [1] was 8.3.
`CC1CC(N2CC(CC#N)(n3cc(-c4ncnc5[nH]ccc45)cn3)C2)CCN1Cc1ccc(N(C)C)c(C#N)c1F` (single isomer, unassigned) [Example 243, 3-[(4-{3-(cyanomethyl)-3-[4-(7H-pyrrolo[2,3-d]pyrimidin-4-yl)-1H-pyrazol-1-yl]azetidin-1-yl}-2-methylpiperidin-1-yl)methyl]-6-(dimethylamino)-2-fluorobenzonitrile]: in experiment [1], the “IC50 Ratio JAK2/JAK1” value came to 6.4.
As for `CC1CC(N2CC(CC#N)(n3cc(-c4ncnc5[nH]ccc45)cn3)C2)CCN1Cc1c(F)cccc1Cl` (single isomer, unassigned) [Example 244, {1-[1-(2-chloro-6-fluorobenzyl)-2-methylpiperidin-4-yl]-3-[4-(7H-pyrrolo[2,3-d]pyrimidin-4-yl)-1H-pyrazol-1-yl]azetidin-3-yl}acetonitrile], the IC50 was 5 to 20 nM in experiment [2] and 10 to 50 nM against Jak2 (a.a. 828-1132).
In the same order, the values of `CC1CC(N2CC(CC#N)(n3cc(-c4ncnc5[nH]ccc45)cn3)C2)CCN1Cc1c(F)cccc1Cl` (single isomer, unassigned) [Example 245, {1-[1-(2-chloro-6-fluorobenzyl)-2-methylpiperidin-4-yl]-3-[4-(7H-pyrrolo[2,3-d]pyrimidin-4-yl)-1H-pyrazol-1-yl]azetidin-3-yl}acetonitrile] are 5 to 20 nM and 10 to 50 nM.
In the same order, the values of `N#CCC1(n2cc(-c3ncnc4[nH]ccc34)cn2)CN(C2CCN(C(=O)c3ccnc(C(F)(F)F)c3F)CC2)C1` [Example 1, {1-{1-[3-Fluoro-2-(trifluoromethyl)isonicotinoyl]piperidin-4-yl}-3-[4-(7H-pyrrolo[2,3-d]pyrimidin-4-yl)-1H-pyrazol-1-yl]azetidin-3-yl}acetonitrile] are at most 5 nM and above 100 nM.
In the same order, the values of `N#CCC1(n2cc(-c3ncnc4[nH]ccc34)cn2)CN(C2CCN(C(=O)c3cccc(Cl)c3)CC2)C1` [Example 19, {1-[1-(3-chlorobenzoyl)piperidin-4-yl]-3-[4-(7H-pyrrolo[2,3-d]pyrimidin-4-yl)-1H-pyrazol-1-yl]azetidin-3-yl}acetonitrile] are at most 5 nM and at most 10 nM.
Turning to `Cc1csc(C(=O)N2CCC(N3CC(CC#N)(n4cc(-c5ncnc6[nH]ccc56)cn4)C3)CC2)c1` [Example 79, {1-{1-[(4-meth1-2-thienyl)carbonyl]piperidin-4-yl}-3-[4-(7H-pyrrolo[2,3-d]pyrimidin-4-yl)-1H-pyrazol-1-yl]azetidin-3-yl}acetonitrile], the IC50 in experiment [2] is at most 5 nM; against Jak2 (a.a. 828-1132), at most 10 nM.
In the same order, the values of `N#CCC1(n2cc(-c3ncnc4[nH]ccc34)cn2)CN(C2CCN(C(=O)c3ccnc(C(F)(F)F)n3)CC2)C1` [Example 85, [3-[4-(7H-pyrrolo[2,3-d]pyrimidin-4-yl)-1H-pyrazol-1-yl]-1-(1-{[2-(trifluoromethyl)pyrimidin-4-yl]carbonyl}piperidin-4-yl)azetidin-3-yl]acetonitrile] are 5 to 20 nM and above 100 nM.
Taken in the same sequence, the figures for `N#CCC1(n2cc(-c3ncnc4[nH]ccc34)cn2)CN(C2CCN(C(=O)c3ccc(-c4cccnc4)cc3F)CC2)C1` [Example 120, {1-[1-(2-fluoro-4-pyridin-3-ylbenzoyl)piperidin-4-yl]-3-[4-(7H-pyrrolo[2,3-d]pyrimidin-4-yl)-1H-pyrazol-1-yl]azetidin-3-yl}acetonitrile] were at most 5 nM and at most 10 nM.
Taken in the same sequence, the figures for `N#CCC1(n2cc(-c3ncnc4[nH]ccc34)cn2)CN(C2CC3CCC(C2)N3C(=O)c2ccnc(C(F)(F)F)c2)C1` (stereo not drawn) [Example 144, (3-[4-(7H-pyrrolo[2,3-d]pyrimidin-4-yl)-1H-pyrazol-1-yl]-1-{8-[2-(trifluoromethyl)isonicotinoyl]-8-azabicyclo[3.2.1]oct-3-yl}azetidin-3-yl)acetonitrile] were 5 to 20 nM and 10 to 50 nM.
Consider `N#CCC1(n2cc(-c3ncnc4[nH]ccc34)cn2)CN(C2CC3CCC(C2)N3C(=O)C2CCCC2)C1` (stereo not drawn) [Example 145, {1-[8-(cyclopentylcarbonyl)-8-azabicyclo[3.2.1]oct-3-yl]-3-[4-(7H-pyrrolo[2,3-d]pyrimidin-4-yl)-1H-pyrazol-1-yl]azetidin-3-yl}acetonitrile], for which the IC50 fell in the range of 5 to 20 nM in experiment [2] and 10 to 50 nM on Jak2 (a.a. 828-1132).
Taken in the same sequence, the figures for `N#CCC1(n2cc(-c3ncnc4[nH]ccc34)cn2)CN(C2CC3CCC(C2)N3C(=O)C2CCCCC2)C1` (stereo not drawn) [Example 147, {1-[8-(cyclohexylcarbonyl)-8-azabicyclo[3.2.1]oct-3-yl]-3-[4-(7H-pyrrolo[2,3-d]pyrimidin-4-yl)-1H-pyrazol-1-yl]azetidin-3-yl}acetonitrile] were at most 5 nM and at most 10 nM.
Taken in the same sequence, the figures for `N#CCC1(n2cc(-c3ncnc4[nH]ccc34)cn2)CN(C2CCN(C(=O)Nc3ccc(F)cc3C(F)(F)F)CC2)C1` [Example 154, 4-{3-(Cyanomethyl)-3-[4-(7H-pyrrolo[2,3-d]pyrimidin-4-yl)-1H-pyrazol-1-yl]azetidin-1-yl}-N-[4-fluoro-2-(trifluoromethyl)phenyl]piperidine-1-carboxamide] were at most 5 nM and 10 to 50 nM.
For `N#CCC1(n2cc(-c3ncnc4[nH]ccc34)cn2)CN(C2CCN(Cc3ccc(F)cc3F)CC2)C1` [Example 217, {1-[1-(2,4-difluorobenzyl)piperidin-4-yl]-3-[4-(7H-pyrrolo[2,3-d]pyrimidin-4-yl)-1H-pyrazol-1-yl]azetidin-3-yl}acetonitrile], the “IC50 Ratio JAK2/JAK1” value in experiment [1] was 5.8.
Same read-out and setting: next, `CC1CC(N2CC(CC#N)(n3cc(-c4ncnc5[nH]ccc45)cn3)C2)CCN1Cc1c(F)cccc1Cl` (stereo not drawn) [Example 244, {1-[1-(2-chloro-6-fluorobenzyl)-2-methylpiperidin-4-yl]-3-[4-(7H-pyrrolo[2,3-d]pyrimidin-4-yl)-1H-pyrazol-1-yl]azetidin-3-yl}acetonitrile]: 1.8.
For the compound `[2H]C1(N2CC(CC#N)(n3cc(-c4ncnc5[nH]ccc45)cn3)C2)CCN(C(=O)c2ccnc(C(F)(F)F)c2F)CC1` [Example 363, {1-{1-[3-Fluoro-2-(trifluoromethyl)isonicotinoyl]-4-deuteropiperidin-4-yl}-3-[4-(7H-pyrrolo[2,3-d]pyrimidin-4-yl)-1H-pyrazol-1-yl]azetidin-3-yl}acetonitrile], the concentration for half-maximal inhibition (IC50) in experiment [2] is at most 5 nM; on Jak2 (a.a. 828-1132) it was 50 to 100 nM.
Taken in the same sequence, the figures for `[2H]C1([2H])CN(C(=O)c2ccnc(C(F)(F)F)c2F)CC([2H])([2H])C1([2H])N1CC(CC#N)(n2cc(-c3ncnc4[nH]ccc34)cn2)C1` [Example 364, {1-{1-[3-Fluoro-2-(trifluoromethyl)isonicotinoyl]3,3,4,5,5-pentadeuteropiperidin-4-yl}-3-[4-(7H-pyrrolo[2,3-d]pyrimidin-4-yl)-1H-pyrazol-1-yl]azetidin-3-yl}acetonitrile] were at most 5 nM and 50 to 100 nM.

These data come from patent US9999619B2, “Piperidin-4-yl azetidine derivatives as JAK1 inhibitors” (Incyte Corporation, priority 2010, dated 2018).
